Reference: US20260137697A1, “THIAZOLO[5,4-D]PYRIMIDINE COMPOUNDS, COMPOSITIONS COMPRISING THEM AND USES THEREOF” (University de Montreal, priority 2022, published 2026)

Target: T1, ARAF (Homo sapiens, UniProt P10398)
T1 construct: ARAF kinase reactions were rigorously the same with the exception that kinase concentration was raised to 3.75 nM (cat. No. 1768-0000-1; Reaction Biology)
T1 sequence (P10398 303-606 limits assumed): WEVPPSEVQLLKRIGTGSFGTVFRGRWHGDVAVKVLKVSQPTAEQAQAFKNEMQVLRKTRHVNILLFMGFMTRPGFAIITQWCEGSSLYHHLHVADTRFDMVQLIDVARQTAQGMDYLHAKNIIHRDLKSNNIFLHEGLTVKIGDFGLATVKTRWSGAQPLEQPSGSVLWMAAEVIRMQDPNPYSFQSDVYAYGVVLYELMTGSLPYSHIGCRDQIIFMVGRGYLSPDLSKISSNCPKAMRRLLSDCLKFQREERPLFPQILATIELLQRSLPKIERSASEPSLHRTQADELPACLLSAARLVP
Assay: ARAF kinase activity assay (AlphaLISA p-MEK 1/2)
Type: biochemical
Conditions: Table A; 10 μM ATP, kinase-dead MEK1 substrate
Description: Compound preparation: solid samples of each substance in 1dram vials were suspended in DMSO (Fisher Scientific) at a stock concentration of 20 mM. Stocks were kept at −20° C. and protected from light. If solubility of the compound at 20 mM appeared to be an issue, the initial concentration of the DMSO stock was changed to 10 mM or 5 mM.
In vitro enzymatic reactions were used for evaluating compounds intrinsic activity against BRAF, CRAF and ARAF. For BRAF and CRAF, 0.375 nM of purified GST-tagged kinases (cat. No. B4062-10UG and cat. No. R1656-10UG respectively from Millipore Sigma) were incubated with 75 nM of kinase-dead MEK1 substrate (cat. No. 40075; BPS Bioscience) in the presence of 10 μM of Ultrapure ATP (cat. No. V9102; Promega; part V915A) with and without the test compound in a buffer containing 50 mM HEPES pH 7.5, 10 mM MgCl2, 1 mM EDTA, 0.01% Brij-35 and 2 mM DTT. Separate reactions were performed with the MEK1 substrate and ATP as a blank control. ARAF kinase reactions were rigorously the same with the exception that kinase concentration was raised to 3.75 nM (cat. No. 1768-0000-1; Reaction Biology).
For compound treatment, 5 μL/well of test substance solution are placed in a 384-well proxyplate (Perkin Elmer) and mixed with 2× concentrated kinase reactions. The dilution series is selected so that nine concentrations cover a range from 100 nM to 0.01 nM. […] The final concentration of DMSO in the assay is set at 0.05%.
ARAF kinase reactions were carried out for a total of 2 hours at 30° C. and then stopped by addition of EDTA at a final concentration of 40 mM. Reactions were then detected using the AlphaLISA® SureFire® Ultra™ p-MEK 1/2 (Ser218/222) (PerkinElmer) kit. Reactions were performed with 5 μL of kinase reaction according to the manufacturer's specifications in 384-well proxyplates (Perkin Elmer) followed by overnight incubation of the AlphaLISA® reactions at room temperature in a humidified chamber. After completion of the detection reactions, the signals were recorded on a Synergy Neo2 plate reader (Biotek) equipped with AlphaLISA® filters. The effect of each compound dilution on the pMEK signal generated by ARAF reactions was expressed in % inhibition and calculated as follows. An internal 100% inhibition control (average of luminescence in kinase reactions comprising kinase dead MEK1 substrate alone) was included in each plate to measure of pMEK background and was subtracted from each data point. The average of DMSO (vehicle) controls (set as 0% inhibition) was also established and used to calculate % inhibition:
IC50 values were obtained by plotting the kinase inhibition values and fitting the dose-activity curves using a log(agonist) versus response—variable slope (four parameters) function using either GraphPadPrism (V7.0) or Dotmatics Screening Ultra platform. Standards included in the ARAF kinase assay were Belvarafenib (MedChem Express cat. No. HY-109080; CAS No. 1446113-23-0), LXH254 (MedChem Express cat. No. HY-112089; CAS No. 1800398-38-2) and BGB283 (cat. No. HY-18957; CAS No. 1446090-79-4).

Row | IC50 | Structure (SMILES)
1 | > 10 nM | Cc1ccc2c(Nc3cccc(Cl)c3F)nccc2c1NC(=O)c1csc2c(N)ncnc12 [Belvarafenib, reference compound]
2 | 1 to 10 nM | Cc1c(F)cccc1S(=O)(=O)Nc1ccc(F)c(Nc2ncnc3sc(-n4cc(C(=O)N5C6CCC5CN(C)C6)c5ccccc54)nc23)c1F [Example 44]
3 | 1 to 10 nM | N#CC1(c2cccc3c2ncn3-c2nc3c(Nc4c(F)ccc(NS(=O)(=O)c5cccc(Cl)c5Cl)c4F)ncnc3s2)CC1 [Example 122]
